{"source": "patent US20150072968A1", "about": "“Treating Infections with Ceftolozane/Tazobactam in Subjects Having Impaired Renal Function” (Calixa Therapeutics, Inc., priority 2013, published 2015)", "key": {"[1]": {"assay": "Phase 1 single dose PK of 750 mg ceftolozane/tazobactam in severe renal impairment and ESRD on hemodialysis (Example 8)", "type": "in vivo, human", "conditions": "for AUC(0-t) / Cmax / half-life / Tmax / AUC(0-inf) / clearance / Vd: both sexes, human, plasma; for Cmax: read-out: Cmax, Mean (CV %); for half-life: read-out: t1/2, Mean (CV %) (converted); for Tmax: read-out: tmax, Median (minimum, maximum); for AUC(0-inf): read-out: AUC∞, Mean (CV %); for clearance: read-out: CL, Mean (CV %) (converted); for Vd: read-out: Vss, Mean (CV %)", "description": "This was a Phase 1, multicenter, prospective, open-label study of 750 mg ceftolozane/tazobactam (as CXA-201) administered IV in male and female adult subjects with severe renal impairment (estimated CLCR<30 mL/min) and subjects with end-stage renal disease (ESRD) on hemodialysis (HD). The primary objective of the study was to determine the PK profile of ceftolozane/tazobactam in subjects with severe renal impairment and subjects with ESRD on HD and to determine the effect of HD on the clearance of ceftolozane/tazobactam.\nSubjects with severe renal impairment received a single IV 1-hour infusion of 750 mg ceftolozane/tazobactam on Day 1. […] Subjects in this cohort received an IV dose of 750 mg ceftolozane/tazobactam as a 1 hour infusion immediately after their first HD session on Day 1 (postdialysis, approximately 72 hours prior to the next HD session) and a second dose of ceftolozane/tazobactam approximately 2 hours before their second HD session on Day 4 of the study. Infusion of ceftolozane/tazobactam was completed approximately 1 hour before the start of HD.\nSubjects in both cohorts had urine (if not anuric) and plasma samples collected for determination of levels of ceftolozane, tazobactam and the M1 metabolite of tazobactam; subjects in the ESRD on HD cohort also had dialysate fluid samples collected for PK assessment. Plasma, urine, and dialysate levels of ceftolozane, tazobactam, and its metabolite M1 collected over a prespecified interval were determined by LC/MS/MS assay.\nAll subjects underwent hemodialysis for 3 to 4 hours using a high-flux membrane (either 1.4, 1.8, or 1.9 m^2) on Days 1, 4, and 6 as scheduled. Average blood flow rate was 264 to 600 mL/min and average dialysis flow rate was either 600 or 800 mL/min for all subjects with ESRD."}, "[2]": {"conditions": "cited from earlier work"}, "[3]": {"assay": "Population pharmacokinetic analysis of 10 clinical studies (Example 7)", "type": "in vivo, human", "excerpt": "Base model development. […] Intrinsic covariates analyzed included body weight, age, gender, ethnicity, and baseline calculated CrCL). The CrCL was estimated using the Cockcroft-Gault formula: […] […] Final population PK model: evaluation and performance. […] Smaller shrinkage ≦0.2 indicates good individual estimates."}, "[4]": {"assay": "Pharmacokinetics of ceftolozane/tazobactam in healthy volunteers", "type": "in vivo, human", "conditions": "single 1.5 g intravenous dose of CXA-201, healthy male adults"}, "[5]": {"assay": "clinical", "conditions": "human, in vivo", "excerpt": "CXA-201 plasma concentrations from 6 subjects with ESRD following a single dose without HD and a second dose with HD were used to develop a pPK model (Phoenix NLME, Pharsight)."}, "[6]": {"assay": "Phase I PK studies in subjects with varying degrees of renal function (Example 11)", "type": "in vivo, human", "excerpt": "Male and female subjects, aged 18 to 79 years, with varying degrees of renal function were enrolled in two, prospective, open-label, phase I studies of intravenous ceftolozane/tazobactam. A total of 36 subjects were enrolled into cohorts based on degree of renal function: normal (n=11), mild impairment (n=6), moderate impairment (n=7), severe impairment (n=6), and ESRD on HD (n=6). To ensure subjects with ESRD were receiving effective HD, a target adequacy of HD calculated from the pre- and post-blood urea nitrogen ratios (Kt/V) of at least 1.2 for a minimum of 3 months prior to enrollment was required. Renal impairment groups were classified according to the 2010 U.S."}, "[7]": {"conditions": "cited from earlier work", "remark": "listed apart in the source"}, "[8]": {"conditions": "intravenous, 750 mg, ESRD on HD, second infusion Day 4, start of infusion to end of dialysis"}, "[9]": {"conditions": "iv, 750 mg, ESRD on HD, Day 1 IV infusion of 750 mg (non-hemodialysis phase)"}, "[10]": {"conditions": "iv, 750 mg, ESRD on HD, second IV infusion of 750 mg on Day 4 (during HD)"}, "[11]": {"conditions": "iv, 750 mg, severe renal impairment, single IV 1-hour infusion of 750 mg ceftolozane/tazobactam"}, "[12]": {"conditions": "moderate renal impairment, single 1,000 mg/500 mg dose"}, "[13]": {"conditions": "severe renal impairment, single 500 mg/250 mg dose"}}, "note": "Like-named read-outs stand apart in the source and are kept apart here.", "data": [{"smiles": "C[C@]1(Cn2ccnn2)[C@H](C(=O)O)N2C(=O)C[C@H]2S1(=O)=O", "note": "[Tazobactam]", "values": [{"measurement": "AUC(0-t)", "setting": "[1]; intravenous, 750 mg, ESRD on HD, second infusion Day 4, approximately 6 hours from start of infusion to end of dialysis, read-out: AUClast, Mean (CV %)", "value": 28800, "unit": "ng·h/mL"}, {"measurement": "Cmax", "setting": "[1]; [8]", "value": 15700, "unit": "ng/mL"}, {"measurement": "half-life", "setting": "[1]; [8]", "value": 0.98, "unit": "h"}, {"measurement": "Tmax", "setting": "[1]; [8]", "value": 1, "unit": "h"}, {"measurement": "AUC(0-t)", "setting": "[1]; intravenous, 750 mg, subjects with ESRD, read-out: Exposure (AUC48h) After HD (Day 1), Median (Range)", "value": 107000, "unit": "ng·h/mL"}, {"measurement": "AUC(0-t)", "setting": "[1]; intravenous, 750 mg, subjects with ESRD, read-out: Exposure (AUC48h) During HD (Day 3), Median (Range)", "value": 37100, "unit": "ng·h/mL"}, {"measurement": "AUC(0-inf)", "setting": "[1]; [9]", "value": 105000, "unit": "ng·h/mL"}, {"measurement": "clearance", "setting": "[1]; [9]", "value": 50, "unit": "mL/min"}, {"measurement": "Cmax", "setting": "[1]; [9]", "value": 21200, "unit": "ng/mL"}, {"measurement": "Vd", "setting": "[1]; [9]", "value": 17, "unit": "L"}, {"measurement": "half-life", "setting": "[1]; [9]", "value": 5.23, "unit": "h"}, {"measurement": "AUC(0-t)", "setting": "[1]; iv, 750 mg, ESRD on HD, Day 1 IV infusion of 750 mg (non-hemodialysis phase), through 48 hours, read-out: AUClast, Mean (CV %)", "value": 103000, "unit": "ng·h/mL"}, {"measurement": "Cmax", "setting": "[1]; [10]", "value": 15600, "unit": "ng/mL"}, {"measurement": "half-life", "setting": "[1]; [10]", "value": 5.2, "unit": "h"}, {"measurement": "AUC(0-t)", "setting": "[1]; iv, 750 mg, ESRD on HD, second IV infusion of 750 mg on Day 4 (during HD), through 44 hours, read-out: AUClast, Mean (CV %)", "value": 38400, "unit": "ng·h/mL"}, {"measurement": "AUC(0-t)", "setting": "[1]; iv, 750 mg, severe renal impairment, single IV 1-hour infusion of 750 mg ceftolozane/tazobactam, through 48 hours, read-out: AUClast, Mean (CV %)", "value": 50300, "unit": "ng·h/mL"}, {"measurement": "Cmax", "setting": "[1]; [11]", "value": 15200, "unit": "ng/mL"}, {"measurement": "AUC(0-inf)", "setting": "[1]; [11]", "value": 52400, "unit": "ng·h/mL"}, {"measurement": "clearance", "setting": "[1]; [11]", "value": 85, "unit": "mL/min"}, {"measurement": "Vd", "setting": "[1]; [11]", "value": 16.5, "unit": "L"}, {"measurement": "half-life", "setting": "[1]; [11]", "value": 2.6, "unit": "h"}, {"measurement": "Tmax", "setting": "[1]; ESRD on HD, second IV infusion of 750 mg on Day 4 (during HD)", "value": 1, "unit": "h"}, {"measurement": "removed by dialysis", "setting": "[1]; subjects with ESRD on HD", "value": "~56", "unit": "%"}, {"measurement": "AUC48h Ratio (Day 3:1), Median (Range)", "setting": "[1]; subjects with ESRD, during HD vs after HD", "value": "0.44 (0.26 − 0.53)"}, {"measurement": "Percent Removed, Median (Range)", "setting": "[1]; subjects with ESRD, hemodialysis", "value": "56 (47 − 74) Percent"}, {"measurement": "terminal elimination half-life (t½β)", "setting": "[2]; healthy volunteers", "value": "~1", "unit": "h"}, {"measurement": "Terminal elimination half-lives (t1/2)", "setting": "[2]; patients with normal renal function", "value": "~1", "unit": "h"}, {"measurement": "excreted in the urine as the unchanged parent drug", "setting": "[2]; remainder as inactive M1 metabolite", "value": 80, "unit": "%"}, {"measurement": "between-subject variability (BSV) of CL", "setting": "[3]; final population PK model", "value": 50.2, "unit": "%"}, {"measurement": "between-subject variability (BSV) of Vc", "setting": "[3]; final population PK model", "value": 52.5, "unit": "%"}, {"measurement": "inter-compartment clearance (CL2)", "setting": "[3]; final population PK model", "value": 3.13, "unit": "L/h"}, {"measurement": "volume of distribution in the peripheral compartment (Vp)", "setting": "[3]; final population PK model", "value": 4.29, "unit": "L"}, {"measurement": "clearance", "setting": "[3]; human, plasma, intravenous, final population PK model, read-out: CL, population estimate (converted)", "value": 300, "unit": "mL/min"}, {"measurement": "Vc, population estimate", "setting": "[3]; subjects without infection", "value": 14.2, "unit": "L"}, {"measurement": "excreted in the urine as unchanged parent drug", "setting": "[4]", "value": "More than 80%"}, {"measurement": "Vd", "setting": "[5]", "value": 11, "unit": "L"}, {"measurement": "clearance", "setting": "[5]", "value": 51.2, "unit": "mL/min"}, {"measurement": "increase of CL by HD", "setting": "[5]", "value": 6.6, "unit": "fold"}, {"measurement": "increase of Vc by HD", "setting": "[5]", "value": 1.5, "unit": "fold"}, {"measurement": "extraction ratio", "setting": "[6]; 1 h after the start of HD", "value": 48, "unit": "%"}, {"measurement": "extraction ratio", "setting": "[6]; 2 h after the start of HD", "value": 54, "unit": "%"}, {"measurement": "median Cmax in plasma higher compared with normal renal function, dose normalized", "setting": "[6]; ESRD during non-HD", "value": 2.4, "unit": "fold"}, {"measurement": "average extraction ratio during HD", "setting": "[6]; ESRD on HD", "value": 53, "unit": "%"}, {"measurement": "median RDHD (percent reduction in plasma concentration during HD)", "setting": "[6]; ESRD on HD", "value": 95, "unit": "%"}, {"measurement": "reduction in overall exposure based on the AUC0-∞ on and off HD", "setting": "[6]; ESRD on HD", "value": "~56", "unit": "%"}, {"measurement": "plasma concentration rebound peak following HD, of the original Cmax", "setting": "[6]; ESRD, period following HD", "value": "~6", "unit": "%"}, {"measurement": "extraction ratio", "setting": "[6]; at end of HD", "value": 55, "unit": "%"}, {"measurement": "clearance", "setting": "[6]; both sexes, human, dialysate and plasma, intravenous, ESRD on HD, read-out: median dialysis clearance (CLD) (converted)", "value": 73.2, "unit": "mL/min"}, {"measurement": "half-life", "setting": "[6]; both sexes, human, plasma, intravenous, ESRD on HD, read-out: t1/2 during the HD period (converted)", "value": 0.91, "unit": "h"}, {"measurement": "increase of median AUC0-∞ compared with normal renal function", "setting": "[6]; [12]", "value": 2.2, "unit": "fold"}, {"measurement": "increase of median Cmax compared with normal renal function", "setting": "[6]; [12]", "value": 1.6, "unit": "fold"}, {"measurement": "increase of median AUC0-∞ compared with dose-normalized exposure in normal renal function", "setting": "[6]; [13]", "value": 3.8, "unit": "fold"}, {"measurement": "increase of median Cmax compared with dose-normalized exposure in normal renal function", "setting": "[6]; [13]", "value": 1.9, "unit": "fold"}, {"measurement": "protein binding", "setting": "[7]", "value": "~30", "unit": "%"}]}]}
